According to patent US20050282743A1, “Molecular interactions in cells” (Arbor Vita Corporation, priority 2001, published 2005):
Ends that are not written are not given here. Peptide text beside a SMILES is read from it. * marks the point of attachment. Biotin = O=C1N[C@H]2[C@H](CS[C@H]2CCCCC(=O)*)N1

Legend:
Experiment in all cases: G' assay (10 uM PL peptide), results of TABLE 7 and TABLE 12
Type in all cases: binding
[1] = target: T1, PDZ protein (GST-PDZ fusion) (Homo sapiens, UniProt Q9Y3R0)
T1 construct: made in house; host or cells: E. coli (DH5alpha, BL21 or JM109)
T1 sequence (Q9Y3R0 1-1128): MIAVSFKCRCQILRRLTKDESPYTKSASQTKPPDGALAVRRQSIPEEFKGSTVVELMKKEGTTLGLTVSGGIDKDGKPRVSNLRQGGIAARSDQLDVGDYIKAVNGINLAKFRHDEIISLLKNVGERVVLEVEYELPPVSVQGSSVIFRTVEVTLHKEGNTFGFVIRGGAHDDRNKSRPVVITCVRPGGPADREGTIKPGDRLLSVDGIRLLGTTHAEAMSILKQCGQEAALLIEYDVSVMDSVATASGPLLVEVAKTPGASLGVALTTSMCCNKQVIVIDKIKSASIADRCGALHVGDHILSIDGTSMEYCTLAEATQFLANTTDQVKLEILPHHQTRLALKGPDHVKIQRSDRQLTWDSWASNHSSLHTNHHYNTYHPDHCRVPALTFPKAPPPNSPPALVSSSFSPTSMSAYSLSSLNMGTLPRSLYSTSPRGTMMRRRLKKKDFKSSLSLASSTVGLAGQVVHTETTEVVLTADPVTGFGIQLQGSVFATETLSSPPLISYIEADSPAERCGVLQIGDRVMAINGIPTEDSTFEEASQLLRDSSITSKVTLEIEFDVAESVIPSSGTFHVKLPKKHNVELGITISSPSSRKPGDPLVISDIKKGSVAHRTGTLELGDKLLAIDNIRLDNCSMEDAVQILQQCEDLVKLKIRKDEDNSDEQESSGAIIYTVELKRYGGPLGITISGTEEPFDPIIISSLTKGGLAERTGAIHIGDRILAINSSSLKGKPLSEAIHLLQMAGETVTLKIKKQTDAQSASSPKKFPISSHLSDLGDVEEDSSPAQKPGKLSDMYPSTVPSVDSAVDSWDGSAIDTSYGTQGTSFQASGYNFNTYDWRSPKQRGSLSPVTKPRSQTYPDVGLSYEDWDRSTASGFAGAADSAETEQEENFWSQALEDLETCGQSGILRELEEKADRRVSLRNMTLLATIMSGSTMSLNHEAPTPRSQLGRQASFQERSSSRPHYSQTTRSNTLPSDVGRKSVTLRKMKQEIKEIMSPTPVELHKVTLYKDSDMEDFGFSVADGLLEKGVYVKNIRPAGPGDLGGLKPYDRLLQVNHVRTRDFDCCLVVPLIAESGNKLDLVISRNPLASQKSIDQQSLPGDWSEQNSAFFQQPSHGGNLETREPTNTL
In short: (§1)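 Biotin-PL peptide (N-term label), 10 uM vs GST-PDZ; protein 5 ug/ml by default. A450 nm binned: 1 = 0-1, 2 = 1-2, 3 = 2-3, 4 = 3-4, 5 = >4 on >2 repeats, 0 = no binding.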

[2] = target: T2, PDZ protein (GST-PDZ fusion) (Homo sapiens, UniProt O14745)
T2 construct: made in house; host or cells: E. coli (DH5alpha, BL21 or JM109)
T2 sequence (O14745 1-358): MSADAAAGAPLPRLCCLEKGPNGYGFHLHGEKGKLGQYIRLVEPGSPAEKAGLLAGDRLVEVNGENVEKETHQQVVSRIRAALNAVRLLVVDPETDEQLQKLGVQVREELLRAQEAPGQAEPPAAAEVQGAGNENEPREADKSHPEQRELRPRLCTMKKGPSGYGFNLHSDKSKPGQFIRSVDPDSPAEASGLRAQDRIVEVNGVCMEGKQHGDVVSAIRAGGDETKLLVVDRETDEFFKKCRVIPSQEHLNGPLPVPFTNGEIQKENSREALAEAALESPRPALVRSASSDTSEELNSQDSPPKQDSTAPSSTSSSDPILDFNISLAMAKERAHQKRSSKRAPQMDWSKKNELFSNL
In short: as §1

[3] = target: T3, PDZ protein (GST-PDZ fusion) (Homo sapiens, UniProt Q5T2W1); details: PDZ PDZK1, PDZ Domain 2, 3, 4
T3 construct: made in house; host or cells: E. coli (DH5alpha, BL21 or JM109)
T3 sequence (Q5T2W1 1-519): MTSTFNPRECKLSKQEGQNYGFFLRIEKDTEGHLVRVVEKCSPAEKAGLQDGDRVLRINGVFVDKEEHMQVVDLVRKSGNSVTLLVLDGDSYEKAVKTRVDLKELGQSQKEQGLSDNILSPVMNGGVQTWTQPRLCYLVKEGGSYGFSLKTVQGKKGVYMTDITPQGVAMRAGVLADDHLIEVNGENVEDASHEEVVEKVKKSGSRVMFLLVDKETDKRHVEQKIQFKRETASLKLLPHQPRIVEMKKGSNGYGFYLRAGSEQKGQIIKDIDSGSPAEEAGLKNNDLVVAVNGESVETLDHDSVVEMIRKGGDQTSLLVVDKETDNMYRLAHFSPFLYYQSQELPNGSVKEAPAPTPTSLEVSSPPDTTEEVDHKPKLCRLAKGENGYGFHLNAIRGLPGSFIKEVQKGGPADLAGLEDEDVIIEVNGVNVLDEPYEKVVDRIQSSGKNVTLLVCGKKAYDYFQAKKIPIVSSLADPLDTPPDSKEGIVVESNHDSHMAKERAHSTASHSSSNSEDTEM
In short: as §1

## CC[C@H](C)[C@H](NC(=O)[C@H](C)NC(=O)[C@H](CC(C)C)NC(=O)[C@H](Cc1c[nH]c2ccccc12)NC(=O)[C@H](Cc1c[nH]cn1)NC(=O)[C@H](CCC(N)=O)NC(=O)[C@H](CC(C)C)NC(=O)[C@H](CCC(N)=O)NC(=O)[C@H](Cc1ccccc1)NC(=O)[C@H](CCC(N)=O)NC(=O)[C@H](CCCNC(=N)N)NC(=O)[C@@H](NC(=O)[C@H](CC(=O)O)NC(=O)[C@H](CCCNC(=N)N)NC(=O)[C@H](CCC(N)=O)NC(=O)[C@H](C)NC(=O)[C@@H](NC(=O)[C@H](CC(C)C)NC(=O)[C@H](Cc1c[nH]cn1)NC(=O)[C@H](Cc1c[nH]cn1)NC(=O)CCCC[C@@H]1SC[C@@H]2NC(=O)N[C@@H]21)C(C)C)[C@@H](C)CC)C(=O)O [noradrenaline transporter] (Biotin-HHLVAQRDIRQFQLQHWLAI-OH; C-terminus assumed)
[1]; PDZ GRIP1, PDZ Domain 6
  Classification: 2 (A450 nm 1-2)

## LNETTETQRTLLNGDLQTSI (Biotin-LNETTETQRTLLNGDLQTSI) [SSTR2 (somatostatin recepor 2)]
[1]; PDZ GRIP1, PDZ Domain 7
  Classification: 1 (A450 nm 0-1)

## CC(C)C[C@H](NC(=O)[C@H](C)NC(=O)[C@@H](NC(=O)[C@@H](NC(=O)[C@H](Cc1c[nH]cn1)NC(=O)[C@H](CC(C)C)NC(=O)CNC(=O)[C@H](CCC(N)=O)NC(=O)CNC(=O)CNC(=O)[C@H](C)NC(=O)[C@H](C)NC(=O)[C@H](CCCNC(=N)N)NC(=O)[C@H](C)NC(=O)[C@H](CO)NC(=O)[C@H](CC(=O)O)NC(=O)[C@H](CC(=O)O)NC(=O)[C@H](Cc1c[nH]c2ccccc12)NC(=O)[C@H](C)NC(=O)CCCC[C@@H]1SC[C@@H]2NC(=O)N[C@@H]21)C(C)C)[C@@H](C)O)C(=O)O [LPAP] (Biotin-AWDDSARAAGGQGLHVTAL-OH; C-terminus assumed)
[2]; PDZ EBP50, PDZ Domain 1
  Classification: 5 (A450 nm of 4 more than 2× repeated)
[2]; PDZ EBP50, PDZ Domain 2
  Classification: 4 (A450 nm 3-4)
[3]
  Classification: 3 (A450 nm 2-3)
[1]; PDZ GRIP1, PDZ Domain 3
  Classification: 1 (A450 nm 0-1)

## CC[C@H](C)[C@H](NC(=O)[C@H](CCC(N)=O)NC(=O)[C@@H](NC(=O)[C@H](Cc1c[nH]cn1)NC(=O)[C@H](CCC(N)=O)NC(=O)[C@H](CC(=O)O)NC(=O)[C@H](CCC(=O)O)NC(=O)[C@H](CC(=O)O)NC(=O)[C@H](Cc1ccccc1)NC(=O)[C@@H]1CCCN1C(=O)[C@H](CCC(=O)O)NC(=O)[C@H](CC(N)=O)NC(=O)[C@H](CCC(=O)O)NC(=O)[C@@H]1CCCN1C(=O)[C@H](CC(=O)O)NC(=O)[C@H](CO)NC(=O)[C@H](CC(=O)O)NC(=O)CCCC[C@@H]1SC[C@@H]2NC(=O)N[C@@H]21)[C@@H](C)O)C(=O)N[C@H](C(=O)N[C@@H](CCCCN)C(=O)N[C@H](C(=O)O)C(C)C)[C@@H](C)O [PTEN]
[1]; PDZ GRIP1, PDZ Domain 3
  Classification: 1 (A450 nm 0-1)

## CSCC[C@H](NC(=O)[C@H](C)NC(=O)[C@H](CCCNC(=N)N)NC(=O)CNC(=O)[C@@H](NC(=O)[C@H](Cc1c[nH]c2ccccc12)NC(=O)[C@H](CCCNC(=N)N)NC(=O)CNC(=O)CCCC[C@@H]1SC[C@@H]2NC(=O)N[C@@H]21)[C@@H](C)O)C(=O)N[C@@H](CO)C(=O)N[C@@H](C)C(=O)N[C@@H](Cc1c[nH]c2ccccc12)C(=O)N[C@@H](CCCCN)C(=O)N1CCC[C@H]1C(=O)N[C@H](C(=O)N[C@@H](CCCNC(=N)N)C(=O)N[C@@H](CCCNC(=N)N)C(=O)N[C@@H](CCC(=O)O)C(=O)N[C@H](C(=O)N[C@@H](CCC(=O)O)C(=O)N[C@H](C(=O)O)C(C)C)[C@@H](C)O)[C@@H](C)O [HPV E6 #35 (modified)] (Biotin-GRWTGRAMSAWKPTRRETEV-OH; C-terminus assumed)
[1]; PDZ GRIP1, PDZ Domain 3
  Classification: 2 (A450 nm 1-2)
[1]; PDZ GRIP1, PDZ Domain 6
  Classification: 2 (A450 nm 1-2)

## A2AC_HUMAN (Modified) (Biotin-DFRPSFKHILFRRARRGFRQ; not fully specified)
[1]; PDZ GRIP1, PDZ Domain 5
  Classification: 1 (A450 nm 0-1)

## ALVLIAFCIIRRRPSAYQAL (Biotin-ALVLIAFCIIRRRPSAYQAL) [CD68]
[1]; PDZ GRIP1, PDZ Domain 6
  Classification: 1 (A450 nm 0-1)
